System: 171881-019-R-J1-PDC tumor spheroid viability
Assay: Anticancer human tumor 171881-019-R-J1-PDC patient-derived invasive breast carcinoma cell line growth inhibition [PI3K]
Conditions: spheroids with HUVEC and MSC; for IC50: curve of first compound; for viability, T/C: stronger effect = lower value
From the text: Combinatorial screen of targeted agents with the PI3K inhibitors inavolisib, alpelisib, duvelisib, and copanlisib in multi-cell type tumor spheroids
A high-throughput screen of multi-cell type tumor spheroids was designed to identify active combinations of targeted small molecules and PI3K pathway inhibitors. Complex spheroids include a stromal component modeled by human endothelial cells (HUVEC) and fibroblasts modeled by human mesenchymal stem cells (MSCs). The concentration ranges selected for each drug and investigational agent were based upon clinically achievable concentrations if the clinical Cmax of the agent was known.
Compounds. The drugs and investigational agents: inavolisib (NSC800729), alpelisib (NSC765974), duvelisib (NSC772469), copanlisib (NSC816437), ipatasertib (NSC767898), afuresertib (NSC778305), talazoparib (NSC767125), sapanisertib (NSC764658), selumetinib (NSC741078), tovorafenib (DAY101, NSC766906), vemurafenib (NSC761431), ravoxertinib (NSC781343), sotorasib (NSC818433), MRTX1133 (NSC 836407), abemaciclib (NSC 768073), palbociclib (NSC758247), venetoclax (NSC 766270), SY5609 (NSC837396), enzalutamide (NSC755605), and darolutamide (NSC825331), were obtained from the National Cancer Institute (NCI) Developmental Therapeutics Program Chemical Repository. The FDA-approved anticancer drug set is available from the NCI Developmental Therapeutics Program. […] The stock solutions were prepared in dimethyl sulfoxide (DMSO, Sigma-Aldrich, St. Louis, MO, cat. D2650) at 800-fold the tested concentration and stored at -70 degrees C prior to their use. All drugs and investigational agents were tested over a range starting from a high concentration at or near the clinical Cmax and decreasing in half-log increments. If the clinical Cmax for an agent had not been determined, the highest concentration tested was 10 microM.
Cell Culture. All cells were maintained in an incubator at 37 degrees C and 5% CO2 with 95% humidity. The PDC lines were cultured according to standard operating procedures established by the NCI PDMR (https://pdmr.cancer.gov/sops/default.htm). All PDCs were thawed and cultured in Matrigel-coated flasks prepared with a working solution of 1X Ham's F-12 nutrient mix, without supplementation (Invitrogen, Waltham, MA, cat. 11765054), 100 U/mL penicillin-streptomycin (Invitrogen, cat. 15140122), and 2.5% Matrigel (Corning Inc., Corning, NY, cat. 354248) for the first three passages. The 354836-022-R-J1-PDC, 475296-252-R-J1-PDC, and 997726-040-R-J2-PDC lines were cultured in 6A media, which includes advanced DMEM/F-12 (Thermo Fisher Scientific, cat. 12634028), 10 mM HEPES (Thermo Fisher Scientific, cat. 15630080), 1X GlutaMAX supplement (Thermo Fisher Scientific, cat. 35050061), 0.1 mg/mL primocin (InvivoGen, San Diego, CA, cat. ant-pm-2), 10% defined fetal bovine serum, heat inactivated (HyClone Laboratories Inc., Logan, UT, cat. SH30070.03HI), 50% L-WRN conditioned media (ATCC, cat. CRL-3276), 1.25 mM N-Acetyl-L-cysteine (Sigma-Aldrich, cat. A9165), 10 mM nicotinamide (Sigma-Aldrich, cat. N0636), 1X B-27 supplement (Thermo Fisher Scientific, cat. 17504044), 1X N-2 supplement (Thermo Fisher Scientific, cat. 17502048), and 10 microM Y-27632 dihydrochloride (Tocris Bioscience, Bristol, United Kingdom, cat. 1254). The 624824-186-R-J2-PDC line was cultured in 6C/Colon 1B media, which includes all 6A media components plus 50 ng/mL human EGF recombinant protein (Thermo Fisher Scientific, cat. PHG0311). […]
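Note: spheroids exposed to compound for 7 days before viability read.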
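Throughout, for viability, T/C: 100% = DMSO vehicle-treated spheroids.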

**Q.** For `CCCS(=O)(=O)Nc1ccc(F)c(C(=O)c2c[nH]c3ncc(-c4ccc(Cl)cc4)cc23)c1F` + CC(Nc1ccc2c(c1)OCCn1cc(N3C(=O)OCC3C(F)F)nc1-2)C(N)=O, which IC50 (second compound 0.00316 µM) is on record?
**A.** 5.81 µM

**Q.** And the IC50 (second compound 0.01 µM)?
**A.** 5.75 µM

**Q.** And the IC50 (second compound 0.0316 µM)?
**A.** 4.85 µM

**Q.** What about the IC50 (second compound 0.1 µM) of the same molecule?
**A.** 3.48 µM

**Q.** What about the IC50 (second compound 0.316 µM) of the same molecule?
**A.** < 0.0316 µM

**Q.** And the IC50 (second compound 1 µM)?
**A.** < 0.0316 µM

**Q.** What about the viability, T/C (second compound 0.00316 µM, first compound 0.0316 µM) of the same molecule?
**A.** 92.3%

**Q.** What about the viability, T/C (second compound 0.00316 µM, first compound 0.1 µM) of the same molecule?
**A.** 109%

**Q.** And the viability, T/C (second compound 0.00316 µM, first compound 0.316 µM)?
**A.** 92.9%

**Q.** And the viability, T/C (second compound 0.00316 µM, first compound 1 µM)?
**A.** 109%

**Q.** What about the viability, T/C (second compound 0.00316 µM, first compound 3.16 µM) of the same molecule?
**A.** 94.6%

**Q.** What about the viability, T/C (second compound 0.00316 µM, first compound 10 µM) of the same molecule?
**A.** 10%

**Q.** And the viability, T/C (second compound 0.01 µM, first compound 0.0316 µM)?
**A.** 78.4%

**Q.** What about the viability, T/C (second compound 0.01 µM, first compound 0.1 µM) of the same molecule?
**A.** 87.2%

**Q.** What about the viability, T/C (second compound 0.01 µM, first compound 0.316 µM) of the same molecule?
**A.** 101%

**Q.** What about the viability, T/C (second compound 0.01 µM, first compound 1 µM) of the same molecule?
**A.** 102%

**Q.** What about the viability, T/C (second compound 0.01 µM, first compound 3.16 µM) of the same molecule?
**A.** 92.6%

**Q.** And the viability, T/C (second compound 0.01 µM, first compound 10 µM)?
**A.** 11.1%

**Q.** And the viability, T/C (second compound 0.0316 µM, first compound 0.0316 µM)?
**A.** 63.3%

**Q.** What about the viability, T/C (second compound 0.0316 µM, first compound 0.1 µM) of the same molecule?
**A.** 64.9%

**Q.** And the viability, T/C (second compound 0.0316 µM, first compound 0.316 µM)?
**A.** 81.9%

**Q.** And the viability, T/C (second compound 0.0316 µM, first compound 1 µM)?
**A.** 83.3%

**Q.** What about the viability, T/C (second compound 0.0316 µM, first compound 3.16 µM) of the same molecule?
**A.** 83%

**Q.** What about the viability, T/C (second compound 0.0316 µM, first compound 10 µM) of the same molecule?
**A.** 7.38%

**Q.** And the viability, T/C (second compound 0.1 µM, first compound 0.0316 µM)?
**A.** 46.7%

**Q.** And the viability, T/C (second compound 0.1 µM, first compound 0.1 µM)?
**A.** 51.4%

**Q.** What about the viability, T/C (second compound 0.1 µM, first compound 0.316 µM) of the same molecule?
**A.** 53.9%

**Q.** And the viability, T/C (second compound 0.1 µM, first compound 1 µM)?
**A.** 57%

**Q.** And the viability, T/C (second compound 0.1 µM, first compound 3.16 µM)?
**A.** 61.7%

**Q.** And the viability, T/C (second compound 0.1 µM, first compound 10 µM)?
**A.** 5.11%

**Q.** What about the viability, T/C (second compound 0.316 µM, first compound 0.0316 µM) of the same molecule?
**A.** 32.5%

**Q.** What about the viability, T/C (second compound 0.316 µM, first compound 0.1 µM) of the same molecule?
**A.** 32.4%

**Q.** And the viability, T/C (second compound 0.316 µM, first compound 0.316 µM)?
**A.** 42%

**Q.** And the viability, T/C (second compound 0.316 µM, first compound 1 µM)?
**A.** 44.7%

**Q.** And the viability, T/C (second compound 0.316 µM, first compound 3.16 µM)?
**A.** 42.3%

**Q.** What about the viability, T/C (second compound 0.316 µM, first compound 10 µM) of the same molecule?
**A.** 5%

**Q.** And the viability, T/C (second compound 1 µM, first compound 0.0316 µM)?
**A.** 21%

**Q.** What about the viability, T/C (second compound 1 µM, first compound 0.1 µM) of the same molecule?
**A.** 28.4%

**Q.** And the viability, T/C (second compound 1 µM, first compound 0.316 µM)?
**A.** 28.4%

**Q.** What about the viability, T/C (second compound 1 µM, first compound 1 µM) of the same molecule?
**A.** 33.5%

**Q.** What about the viability, T/C (second compound 1 µM, first compound 3.16 µM) of the same molecule?
**A.** 35.6%

**Q.** And the viability, T/C (second compound 1 µM, first compound 10 µM)?
**A.** 3.55%
